Measured values from article PMC4687028 (Journal of medicinal chemistry, 2015).

Experiments:
Recombinant CYP2A6 = molecular target: T1, Recombinant CYP2A6 (Homo sapiens, UniProt P11509); assay: Inhibition of recombinant CYP2A6; assay type: biochemical
T1 sequence (P11509 1-494): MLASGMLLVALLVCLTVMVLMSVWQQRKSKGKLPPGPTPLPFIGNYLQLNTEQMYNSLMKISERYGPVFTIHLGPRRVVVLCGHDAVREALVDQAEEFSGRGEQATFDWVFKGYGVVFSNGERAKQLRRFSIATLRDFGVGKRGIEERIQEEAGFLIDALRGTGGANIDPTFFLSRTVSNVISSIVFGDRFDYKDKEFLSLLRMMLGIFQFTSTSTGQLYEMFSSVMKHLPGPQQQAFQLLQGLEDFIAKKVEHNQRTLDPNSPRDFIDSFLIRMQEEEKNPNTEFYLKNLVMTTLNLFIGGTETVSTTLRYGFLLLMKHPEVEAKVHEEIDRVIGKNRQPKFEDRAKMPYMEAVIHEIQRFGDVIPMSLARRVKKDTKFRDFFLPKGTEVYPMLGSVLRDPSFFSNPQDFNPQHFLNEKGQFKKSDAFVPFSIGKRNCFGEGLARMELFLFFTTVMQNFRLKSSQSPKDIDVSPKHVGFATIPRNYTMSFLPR

[1] = molecular target: T2, recombinant human aromatase (CYP19) (Homo sapiens, UniProt P11511); assay: Inhibition of recombinant human aromatase; assay type: biochemical
T2 sequence (P11511 1-503): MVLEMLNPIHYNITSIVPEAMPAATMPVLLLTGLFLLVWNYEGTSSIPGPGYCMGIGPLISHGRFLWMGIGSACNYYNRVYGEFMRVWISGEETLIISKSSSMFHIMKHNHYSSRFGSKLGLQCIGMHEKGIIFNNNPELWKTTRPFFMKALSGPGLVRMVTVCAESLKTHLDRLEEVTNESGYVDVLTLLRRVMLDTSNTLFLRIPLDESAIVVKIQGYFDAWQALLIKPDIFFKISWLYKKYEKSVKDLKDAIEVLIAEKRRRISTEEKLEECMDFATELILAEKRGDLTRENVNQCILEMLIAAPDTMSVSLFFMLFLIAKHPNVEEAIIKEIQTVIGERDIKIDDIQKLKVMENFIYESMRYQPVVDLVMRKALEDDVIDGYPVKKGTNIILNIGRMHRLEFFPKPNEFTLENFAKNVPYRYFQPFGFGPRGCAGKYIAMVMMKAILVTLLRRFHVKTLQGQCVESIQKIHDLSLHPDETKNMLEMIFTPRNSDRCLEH

recombinant human ER-α = molecular target: T3, recombinant human ER-α (Homo sapiens, UniProt P03372); assay: ER-α competitor binding assay, fluorescence polarization, displacement of ES2; details: at the concentration of 100,000 nM
T3 sequence (P03372 1-595): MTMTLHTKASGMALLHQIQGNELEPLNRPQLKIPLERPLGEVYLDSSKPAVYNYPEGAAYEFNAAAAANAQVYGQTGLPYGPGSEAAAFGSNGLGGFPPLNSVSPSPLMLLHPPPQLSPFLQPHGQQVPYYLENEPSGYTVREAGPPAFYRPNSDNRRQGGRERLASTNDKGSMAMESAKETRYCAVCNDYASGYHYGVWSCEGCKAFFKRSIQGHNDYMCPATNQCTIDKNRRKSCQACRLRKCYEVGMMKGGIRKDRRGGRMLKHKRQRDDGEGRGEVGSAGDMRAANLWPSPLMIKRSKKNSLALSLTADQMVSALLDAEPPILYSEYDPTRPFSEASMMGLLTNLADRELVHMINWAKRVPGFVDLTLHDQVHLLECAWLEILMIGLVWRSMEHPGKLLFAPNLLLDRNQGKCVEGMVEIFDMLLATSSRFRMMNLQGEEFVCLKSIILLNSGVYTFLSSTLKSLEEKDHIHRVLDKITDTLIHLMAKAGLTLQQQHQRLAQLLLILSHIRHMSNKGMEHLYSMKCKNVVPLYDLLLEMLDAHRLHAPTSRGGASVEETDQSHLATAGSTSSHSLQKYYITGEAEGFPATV

Recombinant CYP2D6 = Recombinant CYP2D6 (Homo sapiens, UniProt P10635); details: previously published; cited from earlier work
Chain of Recombinant CYP2D6 (P10635 whole entry): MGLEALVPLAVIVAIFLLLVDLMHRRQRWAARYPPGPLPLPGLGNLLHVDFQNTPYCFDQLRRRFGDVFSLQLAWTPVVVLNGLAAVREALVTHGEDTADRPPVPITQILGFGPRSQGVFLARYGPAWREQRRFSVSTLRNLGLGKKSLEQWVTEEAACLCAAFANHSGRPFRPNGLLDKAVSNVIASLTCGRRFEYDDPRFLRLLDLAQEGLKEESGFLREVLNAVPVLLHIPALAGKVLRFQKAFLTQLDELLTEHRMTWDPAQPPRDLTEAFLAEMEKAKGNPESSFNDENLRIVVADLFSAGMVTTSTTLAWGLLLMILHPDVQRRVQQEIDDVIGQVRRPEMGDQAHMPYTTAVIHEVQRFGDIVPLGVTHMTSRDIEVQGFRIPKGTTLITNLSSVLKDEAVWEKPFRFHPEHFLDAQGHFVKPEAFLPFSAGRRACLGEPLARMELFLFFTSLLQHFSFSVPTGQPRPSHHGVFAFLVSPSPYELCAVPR

| Percent ER competition, ER-α (recombinant human ER-α) | SMILES | further results |
| --- | --- | --- |
|  | CC/C(=C(/c1ccc(O)cc1)c1ccc(OCCN)cc1)c1ccc(O)cc1 [Compound 10, 4,4'-(1-(4-(2-Aminoethoxy)phenyl)but-1-ene-1,2-diyl)diphenol] | IC50 (Recombinant CYP2A6): 6.73 ± 0.66 µM; Potency against aromatase (CYP19) relative to norendoxifen ([1]; Ki 20.0 nM versus Ki […] nM): 4 fold; Selectivity toward CYP19 versus all other CYP P450 enzymes tested ([1]; other than CYP1A2, from Ki values): > 21 fold |
| 60% competition | CC/C(=C(/c1ccc(O)cc1)c1ccc(OCCBr)cc1)c1ccccc1 [Compound 50, 4-(1-(4-(2-Bromoethoxy)phenyl)-2-phenylbut-1-en-1-yl)phenol] |  |
| 59% competition | NCCOc1ccc(/C(=C(\Cn2ccnc2)c2ccccc2)c2ccc(O)cc2)cc1 [Compound 41, 4-(1-(4-(2-Aminoethoxy)phenyl)-3-(1H-imidazol-1-yl)-2-phenylprop-1-en-1-yl)phenol] |  |
| 48% competition | N#CC/C(=C(/c1ccc(O)cc1)c1ccc(OCCN)cc1)c1ccccc1 [Compound 40, 4-(4-(2-Aminoethoxy)phenyl)-4-(4-hydroxyphenyl)-3-phenylbut-3-enenitrile] |  |
| 62% competition | CC/C(=C(/c1ccc(O)cc1)c1ccc(OCCCl)cc1)c1ccccc1 [Compound 55a, 4-(1-(4-(2-Chloroethoxy)phenyl)-2-phenylbut-1-en-1-yl)phenol] |  |
|  | CC/C(=C(/c1ccc(O)cc1)c1ccc(OCCN)cc1)c1ccccc1 [Norendoxifen] | Recombinant CYP2D6 IC50 (nM) (Recombinant CYP2D6): No inhibition; Recombinant CYP2D6 Ki (nM) (Recombinant CYP2D6): No inhibition |
| 54% competition | CC(C)/C(=C(/c1ccc(O)cc1)c1ccc(OCCN)cc1)c1ccccc1 [Compound 29d, 4-(1-(4-(2-Aminoethoxy)phenyl)-3-methyl-2-phenylbut-1-enyl)phenol] |  |
| 55% competition | CC/C(=C(/c1ccc(O)cc1)c1ccc(OCC(=O)O)cc1)c1ccccc1 [Compound 49, 2-(4-(1-(4-Hydroxyphenyl)-2-phenylbut-1-en-1-yl)phenoxy)acetic Acid] |  |
| 62% competition | CC/C(=C(/c1ccc(O)cc1)c1ccc(OCCO)cc1)c1ccccc1 [Compound 48, 4-(1-(4-(2-Hydroxyethoxy)phenyl)-2-phenylbut-1-en-1-yl)phenol] |  |
| 0% competition | CC/C(=C(/c1ccccc1)c1ccc(OCCN)cc1)c1ccccc1 [Compound 18, 2-(4-(1,2-Diphenylbut-1-en-1-yl)phenoxy)ethan-1-amine] |  |
